Data from patent publication US20220227745A1, “Compounds For Modulating FXR” (NANJING RUIJIE PHARMA TECH CO., LTD., priority 2019, published 2022).

Key:
[1] = target: T1, hFXR-LBD (FXR-GAL4 chimeric receptor) (Homo sapiens, UniProt Q96RI1); experiment: FXR Transactivation Assay (GAL4 luciferase reporter in HEK293T cells); format: cell-based
T1 construct: host or cells: HEK293T
T1 sequence (Q96RI1 262-486 limits assumed): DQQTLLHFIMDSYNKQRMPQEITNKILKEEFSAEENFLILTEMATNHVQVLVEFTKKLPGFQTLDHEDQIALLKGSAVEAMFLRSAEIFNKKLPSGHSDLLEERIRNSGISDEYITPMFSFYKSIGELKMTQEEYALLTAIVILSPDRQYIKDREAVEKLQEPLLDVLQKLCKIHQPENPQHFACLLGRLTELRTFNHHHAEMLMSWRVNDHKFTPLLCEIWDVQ
Description: FXR Transactivation Assay
The present compounds were tested to assess their ability to stimulate FXR transactivation activity. The hFXR-LBD, coding sequence was inserted into the pBIND expression vector (Promega, E1581) to express FXR-GAL4 binding domain chimeric receptors. This expression vector and reporter vector (pGL4.35 which carry a stably integrated GAL4 promoter driven luciferase reporter gene) were co-transfected into HEK293T host cells. Upon agonist binding to the corresponding FXR-GAL4 chimeric receptor, the chimeric receptor binds to the GAL4 binding sites and stimulates the reporter gene.
All the working stock were shake for 5 min on plate shaker (QILINBEIER). Second, all cells were cultured as ATCC recommended. HEK293T cells were assayed in exponential growth phase. Removed culture medium from the flask and rinsed cells with PBS. Added TrypLE solution to the flask and make cells detach. Next, cells were washed once with complete growth medium. Then, cells were pelleted and washed twice with PBS to remove phenol red and resuspend them in medium to a proper concentration. Only cells with viability greater than 90% were used for assays. Seeded 6×10^6 HEK293T cells into a 100 mm dish and incubated at 37° C. under 5% CO2 atmosphere for 16 h. Third, Trans-IT reagent and Opti-MEM mix by inversion and incubate 5 min at room temperature. The cell transfection was performed by mixing DNA and the reagent mixture, as well as 6 μg GAL4-FXR plasmid or 2 μg pGL4.35 luciferase plasmid, respectively. The reagent mixture was added to a 100 mm dish and incubated for 4-7 hrs at 37° C. under 5% CO2 atmosphere. Fourth, transferred 75 nl compound dilutions into 384-well assay plates (PerkinElmer) and seeded HEK293T cells at 17,000 cells/well using phenol red-free DMEM containing 5% charcoal/dextran-treated FBS. Then, cells were incubated for 16-20 h at 37° C. under 5% CO2 atmosphere. Finally, added 25 μl Steady-Glo™ Luciferase Assay Reagent into each well of 384-well assay plate, and then shake plate for 5 min protected from light on a plate shaker. Then, the luminescence value was read on Evision 2104 plate reader (PerkinElmer).
The activity ratio was calculated as follow: […]
RLU: Resulting Luminescence
RLUpositive: The average RLU for the positive controls across the plate.
RLUvehicle: The average RLU for negative controls across the plate.
(§1) EC50 was calculated by fitting % Activity values and log of compound concentrations to nonlinear regression (dose response-variable slope) with GraphPad 5.0.
(§2) X: log of compound concentration.

[2] = target: T2, FXR LBD, GST (Homo sapiens, UniProt Q96RI1); experiment: FXR Binding Assay (TR-FRET, Fluorescein-SRC2-2 coactivator peptide); details: for EC50: TR-FRET FXR LBD coactivator recruitment; for Emax: read-out: Pct Effect (Emax %)
T2 construct: FXR LBD, GST; purchased Invitrogen PV4834
T2 sequence (Q96RI1 262-486 limits assumed): T1 sequence (Q96RI1 262-486 limits assumed)
Description: The interaction between the present compounds and FXR are evaluated by Time-Resolved Fluorescence Resonance Energy Transfer (TR-FRET) competition assay. FRET describes a radiation-free energy transfer between two chromophores: a donor fluorophore in its excited state can transfer energy to an acceptor fluorophore in close proximity (typically <10 nm). In contrast to standard FRET, TR-FRET unites time-resolved fluorescence (TRF) and the FRET principle, TRF use a long-lifetime lanthanide chelate as the donor species, while lanthanide chelates are unique in that their excited-state lifetime can be on the order of a millisecond or longer. Suitable neighbors for FRET are known in the art and can be obtained.
The assay was performed in following steps: first, prepared a) 1 mM compounds (100×) in DMSO; b) reaction buffer containing 1× buffer G with 10 mM DTT; c) 4×FXR LBD (20 nM) in 1× chilled buffer G. Second, performed 3-fold serial dilution of 1 mM test compounds using DMSO from 1 mM, 10 doses in a 96-well plate (249944, Nunc). Then, used complete buffer G to dilute each 100× compounds serial dilution to 2×. Third, added 10 μl 2× compound serial dilution into 384-well plate (3677, Corning). Then, added 5 μl FXR LBD into the assay plate. Prepared a solution containing 2 μM fluorescein-SRC2-2 (4×) and 20 nM Tb anti-GST antibody (4×) in buffer G at room temperature and started the reaction by adding 5 μl the above solution into each well of the assay plate. Centrifuged the assay plates at 1000 g for 1 min and then incubated at room temperature for lhr protected from light. Finally, the plate was read at wavelengths of 520 nm and 495 nm on Envision 2104 plate reader (PerkinElmer).
A ratio (Ratio520 nm/495 nm−Ratiobackground) was calculated for each well. The activity ratio was calculated as follow: […]
Ratiopositive: The average ratio for the positive control across the plate.
Ratiovehicle: The average ratio for negative controls across the plate.
as §1, §2

[3] = % Activity relative to positive control

Compound	EC50 [1]	Pct Effect (Emax %) [2, 3]	EC50 [2]	Emax [2, 3]
Cn1cc(C(=O)O)c2cc(F)c(N3CCN(CCc4c(-c5c(Cl)cccc5Cl)noc4C4CC4)CC3)cc21 [Example I42, 6-(4-(2-(5-cyclopropyl-3-(2,6-dichlorophenyl)isoxazol-4-yl)ethyl)piperazin-1-yl)-5-fluoro-1-methyl-1H-indole-3-carboxylic Acid]	551 nM	196.20%	99 nM	
O=C(O)c1cc(F)c2nc(N3CCN(CCc4c(-c5ccccc5OC(F)(F)F)noc4C4CC4)CC3)sc2c1 [Example I5, 2-(4-(2-(5-cyclopropyl-3-(2-(trifluoromethoxy)phenyl)isoxazol-4-yl)ethyl)piperazin-1-yl)-4-fluorobenzo[d]thiazole-6-carboxylic Acid]	2380 nM		297 nM	116%
CN(Cc1c(-c2c(Cl)cccc2Cl)noc1C1CC1)C1CCN(c2ccc3c(C(=O)O)cn(C)c3c2)CC1 [Example I58, 6-(4-(((5-cyclopropyl-3-(2,6-dichlorophenyl)isoxazol-4-yl)methyl)(methyl)amino)piperidin-1-yl)-1-methyl-1H-indole-3-carboxylic Acid]	2270 nM		497 nM	83.4%
Cc1cccc(Cl)c1-c1noc(C2CC2)c1CCN1CCN(c2ccc3c(C(=O)O)cn(C)c3c2)CC1 [Example I22, 6-(4-(2-(3-(2-chloro-6-methylphenyl)-5-cyclopropylisoxazol-4-yl)ethyl)piperazin-1-yl)-1-methyl-1H-indole-3-carboxylic Acid]	634 nM		162 nM	163%
Cn1cc(C(=O)O)c2ccc(N3CCN(CCc4c(-c5c(F)cccc5Cl)noc4C4CC4)CC3)cc21 [Example I10, 6-(4-(2-(3-(2-chloro-6-fluorophenyl)-5-cyclopropylisoxazol-4-yl)ethyl)piperazin-1-yl)-1-methyl-1H-indole-3-carboxylic Acid]	524 nM		728 nM	173%
C[C@@H]1CN(c2ccc3c(C(=O)O)cn(C)c3c2)CCN1CCc1c(-c2c(Cl)cccc2Cl)noc1C1CC1 [Example I35, (R)-6-(4-(2-(5-cyclopropyl-3-(2,6-dichlorophenyl)isoxazol-4-yl)ethyl)-3-methylpiperazin-1-yl)-1-methyl-1H-indole-3-carboxylic Acid]	494 nM		97 nM	156%
Cn1cc(C(=O)O)c2ccc(N3CCN(CCc4c(-c5ccccc5C(F)(F)F)noc4C4CC4)CC3)cc21 [Example I26, 6-(4-(2-(5-cyclopropyl-3-(2-(trifluoromethyl)phenyl)isoxazol-4-yl)ethyl)piperazin-1-yl)-1-methyl-1H-indole-3-carboxylic Acid]	1210 nM		882 nM	214%
Cn1cc(C(=O)O)c2ccc(N3CCN(C(=O)Cc4c(-c5c(Cl)cccc5Cl)noc4C4CC4)CC3)cc21 [Example I2, 6-(4-(2-(5-cyclopropyl-3-(2,6-dichlorophenyl)isoxazol-4-yl)acetyl)piperazin-1-yl)-1-methyl-1H-indole-3-carboxylic Acid]	11100 nM		5110 nM	75.1%
CC1CN(CCc2c(-c3c(Cl)cccc3Cl)noc2C2CC2)CCN1c1ccc2c(C(=O)O)cn(C)c2c1 (stereo not drawn) [Example I12, 6-(4-(2-(5-cyclopropyl-3-(2,6-dichlorophenyl)isoxazol-4-yl)ethyl)-2-methylpiperazin-1-yl)-1-methyl-1H-indole-3-carboxylic Acid]	129 nM		133 nM	147%
Cn1cc(C(=O)O)c2ccc(N3C4CCC3CN(CCc3c(-c5c(Cl)cccc5Cl)noc3C3CC3)C4)cc21 [Example I30, 6-(3-(2-(5-cyclopropyl-3-(2,6-dichlorophenyl)isoxazol-4-yl)ethyl)-3,8-diazabicyclo[3.2.1]octan-8-yl)-1-methyl-1H-indole-3-carboxylic Acid]	1200 nM		60 nM	111%
Cn1cc(C(=O)O)c2ccc(N3CCN(CCc4c(-c5c(Cl)cccc5Cl)noc4C4CC4)CC3(C)C)cc21 [Example I25, 6-(4-(2-(5-cyclopropyl-3-(2,6-dichlorophenyl)isoxazol-4-yl)ethyl)-2,2-dimethylpiperazin-1-yl)-1-methyl-1H-indole-3-carboxylic Acid]	288 nM		83 nM	151%
CC(CN1CCN(c2ccc3c(C(=O)O)cn(C)c3c2)CC1)c1c(-c2c(Cl)cccc2Cl)noc1C1CC1 (stereo not drawn) [Example I24, 6-(4-(2-(5-cyclopropyl-3-(2,6-dichlorophenyl)isoxazol-4-yl)propyl)piperazin-1-yl)-1-methyl-1H-indole-3-carboxylic Acid]	1860 nM		422 nM	89.8%
C[C@H]1CN(c2ccc3c(C(=O)O)cn(C)c3c2)CCN1CCc1c(-c2c(Cl)cccc2Cl)noc1C1CC1 [Example I37, (S)-6-(4-(2-(5-cyclopropyl-3-(2,6-dichlorophenyl)isoxazol-4-yl)ethyl)-3-methylpiperazin-1-yl)-1-methyl-1H-indole-3-carboxylic Acid]	574 nM		101 nM	232%
O=C(O)c1ccc2cc(N3CCN(CCc4c(-c5c(Cl)cccc5Cl)noc4C4CC4)CC3)ccc2n1 [Example I6, 6-(4-(2-(5-cyclopropyl-3-(2,6-dichlorophenyl)isoxazol-4-yl)ethyl)piperazin-1-yl)quinoline-2-carboxylic Acid]	459 nM		118 nM	142%
Cn1cc(C(=O)O)c2ccc(C3CCN(CCc4c(-c5c(Cl)cccc5Cl)noc4C4CC4)CC3)cc21 [Example I36, 6-(1-(2-(5-cyclopropyl-3-(2,6-dichlorophenyl)isoxazol-4-yl)ethyl)piperidin-4-yl)-1-methyl-1H-indole-3-carboxylic Acid]	577 nM		94 nM	161%
C[C@@H]1CN(CCc2c(-c3c(Cl)cccc3Cl)noc2C2CC2)CCN1c1ccc2c(C(=O)O)cn(C)c2c1 [Example I40, (R)-6-(4-(2-(5-cyclopropyl-3-(2,6-dichlorophenyl)isoxazol-4-yl)ethyl)-2-methylpiperazin-1-yl)-1-methyl-1H-indole-3-carboxylic Acid]	343 nM		77 nM	131%
Cc1onc(-c2c(Cl)cccc2Cl)c1CCN1CCN(c2ccc3c(C(=O)O)cn(C)c3c2)CC1 [Example I27, 6-(4-(2-(3-(2,6-dichlorophenyl)-5-methylisoxazol-4-yl)ethyl)piperazin-1-yl)-1-methyl-1H-indole-3-carboxylic Acid]	1800 nM		454 nM	91.1%
